Test results reported in ChEMBL document CHEMBL4477207, “Discovery of Novel 3-Quinoline Carboxamides as Potent, Selective, and Orally Bioavailable Inhibitors of Ataxia Telangiectasia Mutated (ATM) Kinase” (J Med Chem, 2016).

Columns and labels:
[1] = target: Serine-protein kinase ATM (Homo sapiens, UniProt Q13315); test: Inhibition of ATM phosphorylation at Ser-1981 residue in human HT-29 cells incubated for 1 hr followed by X-ray irradiation by Hoechst staining based fluorescence plate reader analysis; assay type: cell-based
Serine-protein kinase ATM, sequence (Q13315 whole entry): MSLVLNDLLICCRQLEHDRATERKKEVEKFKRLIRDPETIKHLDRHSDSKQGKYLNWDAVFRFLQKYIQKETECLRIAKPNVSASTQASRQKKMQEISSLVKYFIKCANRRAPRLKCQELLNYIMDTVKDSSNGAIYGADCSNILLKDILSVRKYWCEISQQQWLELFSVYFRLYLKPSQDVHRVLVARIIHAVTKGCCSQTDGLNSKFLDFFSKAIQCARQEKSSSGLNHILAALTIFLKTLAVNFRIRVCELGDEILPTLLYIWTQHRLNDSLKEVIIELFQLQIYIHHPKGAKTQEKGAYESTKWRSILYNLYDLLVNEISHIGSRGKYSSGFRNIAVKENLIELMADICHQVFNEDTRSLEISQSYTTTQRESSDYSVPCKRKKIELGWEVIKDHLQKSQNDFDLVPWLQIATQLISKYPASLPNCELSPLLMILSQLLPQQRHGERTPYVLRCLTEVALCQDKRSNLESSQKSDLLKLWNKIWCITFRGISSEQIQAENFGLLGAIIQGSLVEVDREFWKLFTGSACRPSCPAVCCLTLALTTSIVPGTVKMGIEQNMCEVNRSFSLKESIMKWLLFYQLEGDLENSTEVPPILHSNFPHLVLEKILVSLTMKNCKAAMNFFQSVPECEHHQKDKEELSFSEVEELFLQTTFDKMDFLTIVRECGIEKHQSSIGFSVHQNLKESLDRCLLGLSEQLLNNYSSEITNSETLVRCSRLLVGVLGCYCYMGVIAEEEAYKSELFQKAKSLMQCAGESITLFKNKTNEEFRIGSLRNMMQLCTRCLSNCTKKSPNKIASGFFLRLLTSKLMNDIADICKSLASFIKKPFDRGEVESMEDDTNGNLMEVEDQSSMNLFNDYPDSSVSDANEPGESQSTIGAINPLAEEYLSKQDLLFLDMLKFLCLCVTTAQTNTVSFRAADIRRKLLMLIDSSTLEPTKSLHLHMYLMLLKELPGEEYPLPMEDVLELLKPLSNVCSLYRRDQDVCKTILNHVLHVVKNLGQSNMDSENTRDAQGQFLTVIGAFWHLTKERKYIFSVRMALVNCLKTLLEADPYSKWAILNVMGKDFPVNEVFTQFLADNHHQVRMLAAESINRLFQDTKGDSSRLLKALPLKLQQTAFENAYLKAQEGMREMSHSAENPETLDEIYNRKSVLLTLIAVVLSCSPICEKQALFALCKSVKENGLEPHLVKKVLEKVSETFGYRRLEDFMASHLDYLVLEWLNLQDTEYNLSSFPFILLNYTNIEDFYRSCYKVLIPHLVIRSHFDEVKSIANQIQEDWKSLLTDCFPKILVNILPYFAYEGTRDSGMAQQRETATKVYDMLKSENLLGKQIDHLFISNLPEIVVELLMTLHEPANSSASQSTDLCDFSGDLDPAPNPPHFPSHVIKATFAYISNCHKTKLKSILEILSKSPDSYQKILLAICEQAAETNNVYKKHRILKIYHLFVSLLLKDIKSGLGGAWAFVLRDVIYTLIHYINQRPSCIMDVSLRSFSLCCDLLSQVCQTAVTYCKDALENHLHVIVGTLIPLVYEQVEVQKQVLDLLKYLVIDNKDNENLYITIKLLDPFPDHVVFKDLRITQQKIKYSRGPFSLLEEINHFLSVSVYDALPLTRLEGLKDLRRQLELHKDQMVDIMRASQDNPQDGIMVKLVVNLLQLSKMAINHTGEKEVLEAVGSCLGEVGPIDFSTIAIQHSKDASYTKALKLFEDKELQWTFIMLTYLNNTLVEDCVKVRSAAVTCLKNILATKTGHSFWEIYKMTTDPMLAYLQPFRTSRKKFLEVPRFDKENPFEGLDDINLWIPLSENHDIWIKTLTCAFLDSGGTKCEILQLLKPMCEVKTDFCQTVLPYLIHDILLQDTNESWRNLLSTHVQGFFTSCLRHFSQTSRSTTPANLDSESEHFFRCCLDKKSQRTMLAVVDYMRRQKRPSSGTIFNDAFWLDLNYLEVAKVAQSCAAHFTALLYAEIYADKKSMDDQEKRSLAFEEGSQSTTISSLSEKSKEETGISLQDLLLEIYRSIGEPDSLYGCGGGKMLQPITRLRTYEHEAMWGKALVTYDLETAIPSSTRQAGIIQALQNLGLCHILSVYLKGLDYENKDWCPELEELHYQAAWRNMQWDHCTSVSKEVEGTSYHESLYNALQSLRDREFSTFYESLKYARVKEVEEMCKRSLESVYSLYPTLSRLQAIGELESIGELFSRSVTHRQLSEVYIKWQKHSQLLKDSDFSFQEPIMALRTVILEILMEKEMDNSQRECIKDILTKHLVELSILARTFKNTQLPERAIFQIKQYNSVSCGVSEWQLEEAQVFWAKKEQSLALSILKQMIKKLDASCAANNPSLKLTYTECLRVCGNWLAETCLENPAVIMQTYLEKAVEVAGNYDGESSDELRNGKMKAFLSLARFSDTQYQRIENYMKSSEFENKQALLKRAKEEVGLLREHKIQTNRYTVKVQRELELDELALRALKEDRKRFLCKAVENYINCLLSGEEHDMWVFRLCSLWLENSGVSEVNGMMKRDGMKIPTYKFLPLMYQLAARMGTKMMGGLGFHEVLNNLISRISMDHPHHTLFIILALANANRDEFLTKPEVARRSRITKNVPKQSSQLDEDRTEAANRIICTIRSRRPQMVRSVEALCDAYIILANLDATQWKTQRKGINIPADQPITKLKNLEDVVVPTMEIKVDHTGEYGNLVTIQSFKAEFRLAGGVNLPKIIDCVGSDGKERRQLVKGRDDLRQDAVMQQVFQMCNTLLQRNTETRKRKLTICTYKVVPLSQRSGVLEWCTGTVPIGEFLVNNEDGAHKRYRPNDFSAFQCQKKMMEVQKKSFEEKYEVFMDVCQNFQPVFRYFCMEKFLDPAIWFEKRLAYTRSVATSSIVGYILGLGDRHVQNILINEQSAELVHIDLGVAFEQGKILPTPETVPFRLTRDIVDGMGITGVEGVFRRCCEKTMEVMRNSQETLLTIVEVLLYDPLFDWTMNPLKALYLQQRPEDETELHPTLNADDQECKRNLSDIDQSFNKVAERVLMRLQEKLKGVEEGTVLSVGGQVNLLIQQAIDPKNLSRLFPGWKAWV

[2] = target: Serine/threonine-protein kinase ATR (Homo sapiens, UniProt Q13535); test: Inhibition of ATR in human HT-29 cells assessed as reduction in Chk1 phosphorylation at Ser-345 residue after 60 mins in presence of 4-nitroquinoline-1-oxide by Hoechst 33258 staining based plate reader analysis; assay type: cell-based
in vitro [3] = details: rat, hepatocytes
physchem = details: octanol/buffer, pH 7.4
in vitro [4] = details: human, hepatocytes
[5] = target: Voltage-gated inwardly rectifying potassium channel KCNH2 (Homo sapiens, UniProt Q12809)
Voltage-gated inwardly rectifying potassium channel KCNH2, sequence (Q12809 whole entry): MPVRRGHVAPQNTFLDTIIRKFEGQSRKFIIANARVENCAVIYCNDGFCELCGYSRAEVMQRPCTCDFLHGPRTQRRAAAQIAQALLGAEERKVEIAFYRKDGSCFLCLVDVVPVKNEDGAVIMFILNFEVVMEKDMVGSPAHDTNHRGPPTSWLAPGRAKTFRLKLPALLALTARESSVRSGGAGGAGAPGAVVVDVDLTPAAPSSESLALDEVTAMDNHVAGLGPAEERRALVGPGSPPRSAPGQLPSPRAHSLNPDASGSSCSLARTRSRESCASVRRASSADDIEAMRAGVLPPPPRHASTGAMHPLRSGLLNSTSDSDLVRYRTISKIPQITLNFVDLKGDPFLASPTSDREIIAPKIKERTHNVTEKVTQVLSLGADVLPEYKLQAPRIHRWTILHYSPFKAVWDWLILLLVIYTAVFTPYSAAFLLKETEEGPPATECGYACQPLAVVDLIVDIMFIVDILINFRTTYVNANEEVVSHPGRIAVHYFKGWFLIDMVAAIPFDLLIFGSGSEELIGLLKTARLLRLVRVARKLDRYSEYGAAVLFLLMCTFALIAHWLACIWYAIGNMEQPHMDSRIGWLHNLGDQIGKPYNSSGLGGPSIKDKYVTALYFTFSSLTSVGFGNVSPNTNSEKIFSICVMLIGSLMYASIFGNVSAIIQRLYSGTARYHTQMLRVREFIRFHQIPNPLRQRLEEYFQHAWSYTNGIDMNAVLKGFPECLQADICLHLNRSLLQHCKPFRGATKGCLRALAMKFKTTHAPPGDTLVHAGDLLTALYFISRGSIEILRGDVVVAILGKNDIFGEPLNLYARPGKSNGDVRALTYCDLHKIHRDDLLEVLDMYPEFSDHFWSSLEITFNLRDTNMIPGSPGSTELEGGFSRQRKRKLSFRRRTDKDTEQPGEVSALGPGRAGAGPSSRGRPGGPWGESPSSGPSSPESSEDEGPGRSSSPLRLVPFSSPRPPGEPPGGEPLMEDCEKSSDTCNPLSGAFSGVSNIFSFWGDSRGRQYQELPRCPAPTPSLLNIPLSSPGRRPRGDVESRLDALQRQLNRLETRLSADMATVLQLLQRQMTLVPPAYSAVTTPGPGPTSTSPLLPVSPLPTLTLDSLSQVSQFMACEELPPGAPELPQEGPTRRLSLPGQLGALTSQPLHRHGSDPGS
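For logD in this document: determined by the shake flask method.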

IC50 [1]	IC50 [2]	hepatocyte CLint at 1.5 h (in vitro [3])	logD (physchem)	hepatocyte CLint at 1.5 h (in vitro [4])	Compound	IC50 [5]
954 nM	3100 nM	8.5 µL/min/1e6 cells	1.9	< 4.2 µL/min/1e6 cells	NC(=O)c1cnc2ccc(-c3cccnc3)cc2c1NC1CCOCC1	
456 nM	3000 nM	130 µL/min/1e6 cells	> 4.3	40 µL/min/1e6 cells	NC(=O)c1cnc2ccc(-c3cccnc3)cc2c1NCC1CCCCC1	830 nM
> 30000 nM	> 30000 nM	7.3 µL/min/1e6 cells	2.1	< 1 µL/min/1e6 cells	NC(=O)c1cnc2c(Cl)cc(-c3cccnc3)cc2c1NC1CCOCC1	
52 nM	> 30000 nM				COCc1ccc(-c2cc3c(N[C@@H](C)C4CCOCC4)c(C(N)=O)cnc3cc2F)cn1	
606 nM	> 30000 nM	13 µL/min/1e6 cells	2.1	5.5 µL/min/1e6 cells	NC(=O)c1cnc2cc(F)c(-c3cccnc3)cc2c1NC1CCOCC1	
3230 nM	11000 nM	19 µL/min/1e6 cells	2.1	12 µL/min/1e6 cells	NC(=O)c1cnc2ccc(-c3cccnc3)cc2c1NCC1CCOCC1	
> 30000 nM	> 30000 nM				NC(=O)c1cnc2c(F)cc(-c3cccnc3)cc2c1NC1CCOCC1	
132 nM	3200 nM	70 µL/min/1e6 cells	3.8	34 µL/min/1e6 cells	NC(=O)c1cnc2ccc(-c3cccnc3)cc2c1NC1CCCCC1	
6000 nM	> 30000 nM				CCC(CC)CNc1c(C(N)=O)cnc2c(C)cc(-c3cccnc3)cc12	

More lines, now with the values behind:

Compound	IC50 [1]	IC50 [2]	hepatocyte CLint at 1.5 h (in vitro [3])	logD (physchem)	hepatocyte CLint at 1.5 h (in vitro [4])	IC50 [5]
C[C@@H](Nc1c(C(=O)O)cnc2ccc(-c3cccnc3)cc12)c1ccc(Cl)cc1	> 30000 nM	> 30000 nM				
COCc1ccc(-c2cc3c(N[C@@H](C)c4nn(C)cc4F)c(C(N)=O)cnc3cc2F)cn1	19 nM	> 30000 nM	4.8 µL/min/1e6 cells	3	5.5 µL/min/1e6 cells	
CCC(CC)CNc1c(C(N)=O)cnc2ccc(-c3cncnc3)cc12	1840 nM	> 18000 nM	140 µL/min/1e6 cells	3.3	46 µL/min/1e6 cells	
CNC(=O)c1cnc2ccc(-c3cccnc3)cc2c1N[C@H](C)c1ccc(Cl)cc1	> 30000 nM	> 30000 nM				
CCC(CC)CNc1c(C(N)=O)cnc2ccc(-c3ccncc3)cc12	418 nM	730 nM	76 µL/min/1e6 cells	3.3	37 µL/min/1e6 cells	
CCC(CC)CNc1c(C(N)=O)cnc2ccc(-c3ccc(C)nc3)cc12	50 nM	5500 nM	150 µL/min/1e6 cells	> 4.3	7.3 µL/min/1e6 cells	
C[C@@H](Nc1ccnc2ccc(-c3cccnc3)cc12)c1ccc(Cl)cc1	> 30000 nM	> 30000 nM				
CCC(CC)CNc1c(C(N)=O)cnc2ccc(-c3cccnn3)cc12	571 nM	> 15000 nM				
CCC(CC)CNc1c(C(N)=O)cnc2ccc(-c3ccc(CS(C)(=O)=O)nc3)cc12	39 nM	> 30000 nM	200 µL/min/1e6 cells	3.1	15 µL/min/1e6 cells	1900 nM
CCC(CC)CNc1c(C(N)=O)cnc2ccc(-c3ccnnc3)cc12	908 nM	2600 nM	95 µL/min/1e6 cells	3.1	18 µL/min/1e6 cells	
CCC(CC)CNc1c(C(N)=O)cnc2ccc(-c3cnn(C)c3)cc12	525 nM	7100 nM				
COCc1ccc(-c2ccc3ncc(C(N)=O)c(N[C@@H](C)c4ccn(C)n4)c3c2)c(F)n1	63 nM	> 25000 nM	6.4 µL/min/1e6 cells	2.6	5.7 µL/min/1e6 cells	
COCc1ccc(-c2cc3c(N[C@@H](C)c4ccn(C)n4)c(C(N)=O)cnc3cc2F)c(F)n1		> 30000 nM				
CCC(CC)CNc1c(C(N)=O)cnc2ccc(-c3cccnc3)cc12	73 nM	> 11000 nM	140 µL/min/1e6 cells	4	43 µL/min/1e6 cells	
